# According to patent US20250074871A1, “PHENETHYLAMINES AND METHODS OF PREPARATION THEREOF” (priority 2022, published 2025):
# Values joined by “and” are separate entries in the source; they are usually repeats but may differ in a detail not shown here. Equal values may be shown once. Read-outs that look alike come from different tables or passages of the source.
# What was measured:
# 5-HT1A = target: T1, 5-HT1A (Homo sapiens, UniProt P08908); test: 5-HT receptor activity panel (Table 3); type: cell-based; details: Table 3
# T1 sequence (P08908 1-422): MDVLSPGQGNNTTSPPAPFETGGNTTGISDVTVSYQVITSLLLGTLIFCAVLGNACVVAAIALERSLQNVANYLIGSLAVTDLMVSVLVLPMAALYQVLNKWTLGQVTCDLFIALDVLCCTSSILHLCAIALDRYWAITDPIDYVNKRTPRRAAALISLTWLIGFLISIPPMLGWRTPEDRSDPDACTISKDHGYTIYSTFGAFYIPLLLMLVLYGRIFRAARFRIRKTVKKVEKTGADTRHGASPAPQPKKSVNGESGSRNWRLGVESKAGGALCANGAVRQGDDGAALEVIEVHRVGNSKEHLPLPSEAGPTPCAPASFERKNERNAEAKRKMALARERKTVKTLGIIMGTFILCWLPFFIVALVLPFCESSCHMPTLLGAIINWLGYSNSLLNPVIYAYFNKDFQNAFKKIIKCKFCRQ
# [1] = in vitro hepatocyte clearance, dog; type: in vitro ADME; details: for hepatocyte CLint / half-life: Dog hepatocytes; for hepatocyte CLint: read-out: In vitro Clint (μL/min/10^6 cells); for half-life: read-out: In vitro T1/2; for CLint scaled: dog, hepatocytes, read-out: Scale-up Clint
# Experimental: (§1) Additional experimentation was performed on compound 109. Table 6 summarizes, among other things, the anticipated hepatic clearance of compound 109 in various species, as specified in Table 6 and as determined by calculating the in vitro hepatocyte clearance over time and scaling such rate with such species' hepatocyte count and the anticipated liver blood flow rate in such species.
# hepatocyte = test: in vitro hepatocyte clearance, dog; type: in vitro ADME; details: Dog
# Experimental: as §1
# plasma PK in dog = type: in vivo; details: for clearance / half-life / Vd: dog; for clearance: read-out: Cltot (converted); for half-life: read-out: T1/2 Vz (converted); for Vd: read-out: Vz
# Text: (§2) Table 7a and Table 7b summarize, among other things, the observed plasma and Brain P K properties in animals, and the observed plasma and Brain P K properties predicted in humans, for compound 109 in Table 7a and compound 93 for Table 7b: […]
# 5-HT2B receptor = target: T2, 5-HT2B receptor (Homo sapiens, UniProt P41595); test: 5-HT2B Gq dissociation BRET functional assay; type: cell-based; details: for 5-HT2B BRET Eff %: normalized to % 5-HT stimulation
# T2 construct: expressed in transfected cells; host or cells: HEK293T
# T2 sequence (P41595 whole entry): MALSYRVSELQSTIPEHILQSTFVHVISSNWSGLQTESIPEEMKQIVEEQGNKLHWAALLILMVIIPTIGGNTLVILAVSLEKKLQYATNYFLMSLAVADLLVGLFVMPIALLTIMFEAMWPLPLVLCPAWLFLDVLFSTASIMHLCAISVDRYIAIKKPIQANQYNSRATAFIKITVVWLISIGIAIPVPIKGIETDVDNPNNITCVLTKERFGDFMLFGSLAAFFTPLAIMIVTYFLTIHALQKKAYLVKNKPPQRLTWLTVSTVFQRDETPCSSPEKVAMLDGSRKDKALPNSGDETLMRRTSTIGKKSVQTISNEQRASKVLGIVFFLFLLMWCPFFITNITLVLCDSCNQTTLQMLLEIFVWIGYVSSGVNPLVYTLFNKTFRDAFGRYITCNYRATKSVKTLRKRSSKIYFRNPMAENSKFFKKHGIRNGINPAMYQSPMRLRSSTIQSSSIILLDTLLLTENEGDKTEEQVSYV
# 5-HT1F = target: T3, 5-HT1F (Homo sapiens, UniProt P30939); test: 5-HT receptor activity panel (Table 3); type: cell-based
# T3 sequence (P30939 1-366): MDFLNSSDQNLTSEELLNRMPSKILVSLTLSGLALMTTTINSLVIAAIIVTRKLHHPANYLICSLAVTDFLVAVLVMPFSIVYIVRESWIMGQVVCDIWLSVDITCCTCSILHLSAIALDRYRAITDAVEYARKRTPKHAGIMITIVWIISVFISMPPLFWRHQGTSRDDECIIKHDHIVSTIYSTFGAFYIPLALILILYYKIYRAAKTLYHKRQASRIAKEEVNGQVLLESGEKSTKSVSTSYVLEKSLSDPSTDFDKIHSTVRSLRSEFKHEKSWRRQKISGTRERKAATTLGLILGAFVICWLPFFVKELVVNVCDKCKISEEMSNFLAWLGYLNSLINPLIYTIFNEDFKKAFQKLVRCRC
# [2] = plasma and brain PK in mice; type: in vivo; details: mouse; for Kp: brain; for clearance: read-out: Cltot (converted); for half-life: read-out: T1/2 Vz (converted); for Vd: read-out: Vz
# Text: as §2
# [3] = plasma and brain PK in rat; type: in vivo; details: for Kp: brain; for clearance: read-out: Cltot (converted); for half-life: read-out: T1/2 Vz (converted); for Vd: read-out: Vz
# Text: as §2
# healthy rat subjects = test: locomotor activity test in healthy rats; type: in vivo; details: intraperitoneal dose of up to 30 mg/kg
# Experimental: (§3) Additional experimentation was also done on compound 109. Namely, an intraperitoneal dose of up to 30 mg/kg of compound 109 and various reference compounds were delivered into healthy rat subjects and surgery induced abnormal rat subjects (olfactory bulbectomized rats). […] Without being bound by theory, it is believed that these observations are a result of long lasting neuroplasticity effects of compound 109 on surgery induced abnormal rat subjects. FIG. 5 summarizes the results of this experiment. Using psilocybin as a comparative psychedelic, the results of this experiment support the notion that compound 109 provides sustainable acute antidepressant effects. Note that “VEH” refers to vehicle, and “PSIL” refers to psilocybin, in FIG. 5.
# [4] = tested on: α 1a, α 2a, Kappa (KOP), μ (MOP), 5-HT transporter (SERT); test: follow up functional assays on SafetyScreen44 hits
# Experimental: Various compounds disclosed herein were subjected to an in vitro SafetyScreen44™ panel for identifying off-target activity. Compounds of interest that are identified in the panel are then tested in follow up functional assays to identify if such compounds have a significant off-target risk. […] It is predicted that other compounds share similar characteristics with compound 109 and also lack of the off-target activity.
# [5] = tested on: olfactory bulbectomized rats; test: locomotor/behavioral activity in olfactory bulbectomized rats; type: in vivo, rat; details: single intraperitoneal dose, FIG. 5
# Experimental: as §3
SMILES,hepatocyte CLint [1],half-life [1],CLint scaled [1],Predicted hepatic CL (hepatocyte),clearance (plasma PK in dog),half-life (plasma PK in dog),Vd (plasma PK in dog),5-HT2B BRET Eff % (5-HT2B receptor; Table 2),"5-HT2B Eff, % (5-HT2B receptor; Table 3 panel)","5-HT1F Eff, % (5-HT1F; Table 3)",clearance ([2]; plasma),half-life ([2]; plasma),Vd ([2]; plasma),"clearance ([3]; rat, plasma)","half-life ([3]; rat, plasma)","Vd ([3]; rat, plasma)",other results
COc1cc(C(F)(F)F)ccc1CCNCc1ccccc1O [Cpd #93],337 µL/min/1e6 cells,4.11 min,139 L/h/kg,1.829 L/h/kg,3.19 L/h/kg,1.66 h,7.7 L/kg,53% and 52%,50%,69%,11.8 L/h/kg,0.9 h,15.1 L/kg,7.62 L/h/kg,1.38 h,15.2 L/kg,"5-HT1A EC50, nM (5-HT1A): Not active; EC50 (5-HT2B receptor; 5-HT2B BRET EC50 (nM), Table 2, at least three replicate trials): 62.3 nM and 96.2 nM; EC50 (5-HT2B receptor; 5-HT2B EC50, nM, Table 3 panel): 64.2 nM; EC50 (5-HT1F): 8.09 µM; Kp ([2]; read-out: Brain/plasma Ratio): 15.6; Kp ([3]; rat, read-out: Brain/plasma Ratio): 19.6"
CSc1ccccc1CNCCc1ccc(C#N)cc1O [Cpd #109],199 µL/min/1e6 cells,6.96 min,82.2 L/h/kg,1.813 L/h/kg,2.38 L/h/kg,1.3 h,4.33 L/kg,95%,84%,12%,17.2 L/h/kg,0.6 h,14 L/kg,3.2 L/h/kg,2.1 h,9.37 L/kg,"5-HT1A Eff, % (5-HT1A): 3%; EC50 (5-HT1A; read-out: 5-HT1A EC50): 4.27 µM; Hepatic Extraction Ratio (E) (hepatocyte): 0.98; effect on normal locomotor activity (healthy rat subjects): no suggestion that an intraperitoneal dose of up to 30 mg/kg of such compound affects the normal locomotor activity; bioavailability (plasma PK in dog; Dog, IM, read-out: IM f (%)): 120%; Follow up studies (off-target activity) [4]: No significant; Follow up studies (off-target activity) ([4]; listed as compound 109): does not possess significant off-target activity; EC50 (5-HT2B receptor; Table 2, at least three replicate trials, read-out: 5-HT2B BRET EC50): 3140 nM; EC50 (5-HT2B receptor; Table 3 panel, read-out: 5-HT2B EC50): 3090 nM; inhibition of abnormal behavioral activity [5]: significant and long lasting inhibition of abnormal behavioral activity; EC50 (5-HT1F; Table 3, read-out: 5-HT1F EC50): 0.582 µM; Kp ([2]; read-out: Brain Plasma AUC Ratio): 8.39; bioavailability ([2]; plasma, IM, read-out: IM f (%)): 144%; plasma t1/2 ([3]; healthy rat subjects (text b114)): less than an hour; bioavailability ([3]; plasma, rat, IM, read-out: IM f (%)): 92.8%; Kp ([3]; rat, read-out: Brain Plasma AUC Ratio): 2.18"
